Measured values reported in patent US5084468A, “DC-88A derivatives” (Kyowa Hakko Kogyo Co., Ltd., priority 1988, dated 1992).
Where two headings read alike, the source gives them in different places.

Key:
HeLa S3 cells = test: Growth inhibition of HeLa S3 cells (neutral red, 72 hours); type: cell-based; settings: Homo sapiens, read-out: IC50 (drug concentration which inhibited growth of HeLa S3 cells by 50%)
Method: Test on Growth Inhibition of HeLa S3 cells
HeLa S3 cells diluted to 3 x 10^4 cells/ml with MEM medium containing 10% calf fetal serum and 2 mM glutamine were separately distributed by 0.1 ml each in each well of a 96 well microtiter plate.
After culturing at 37° C. overnight in a CO2 -incubator, 0.05 ml each of a test sample appropriately diluted with MEM medium was added to each well.
After culturing the cells for 72 hours in the CO2 -incubator, the culture supernatant was removed. After washing once with phosphate buffered physiological saline (PBS), 0.1 ml each of MEM medium containing 0.02% neutral red was added to each well and then cultured at 37° C. for an hour in the CO2 -incubator to stain the cells. After removing the culture supernatant, the cells were washed once with physiological saline, and the dye was extracted with 0.001N HCl/30% ethanol. Absorbance at […] of the extract was measured with a microplate reader. By comparing absorbance of extract of intact cells with that of the cells treated with a test compound in known concentrations, IC50, i.e. a drug concentration which inhibited growth of the cells by 50% was determined.

dd strain male mice = type: in vivo; settings: intraperitoneal, 14 days observation
Method: Using dd strain male mice weighing 20±1 g, a test compound was intraperitoneally administered. MLD (the minimum lethal dose) was determined by observing the mortality for 14 days after administration.

various bacteria = settings: cited from earlier work
[1] = test system: lymphocytic leukemia P388; settings: lymphocytic leukemia P388, etc.; cited from earlier work
[2] = HeLa S3 cells, 72 hours, neutral red staining

For `COC(=O)C1(C)NC2=C(C1=O)C13CC1CNC3=CC2=O` (stereo not shown) [Compound 18], which IC50 (HeLa S3 cells; [2]) is on record?
Its IC50 is 3900 nM.

Which IC50 (HeLa S3 cells; HeLa S3, 72 h) does the source give for `COC(=O)C1(C)Nc2c(O)cc3c(c2C1=O)C(CBr)CN3C(=O)c1cc2cc(NC(=O)c3cc4ccccc4o3)ccc2[nH]1` (stereo not shown) [Compound 46] here?
The IC50 was 0.4 nM.

And the “Acute Toxicity (MLD), minimum lethal dose” value (from here on “Acute Toxicity (MLD)”) (dd strain male mice)?
The value was 0.63 mg/kg.

What does the source list for `COC(=O)C1(C)Nc2c(O)cc3c(c2C1=O)C(CBr)CN3C(=O)/C=C/c1cccc(OC(C)=O)c1` (stereo not shown) [Compound 35]?
IC50 (HeLa S3 cells; HeLa S3, 72 h): 0.94 nM; Acute Toxicity (MLD), minimum lethal dose (dd strain male mice): 0.25 mg/kg

What does the source list for `COC(=O)C1(C)Nc2c(O)cc3c(c2C1=O)C(CBr)CN3C(=O)c1cc2ccccc2o1` (stereo not shown) [Compound 4]?
IC50 (HeLa S3 cells; HeLa S3, 72 h): 0.1 nM; Acute Toxicity (MLD), minimum lethal dose (dd strain male mice): 0.25 mg/kg

Which “Acute Toxicity (MLD)” value (dd strain male mice) does the source give for `COC(=O)C1(C)Nc2c(O)cc3c(c2C1=O)C(CBr)CN3C(=O)/C=C/c1ccc(C=O)cc1` (stereo not shown) [Compound 42] here?
The value was 2.5 mg/kg.

Which IC50 (HeLa S3 cells; [2]) does the source give for `COC(=O)C1(C)Nc2c(O)cc3c(c2C1=O)C(CBr)CN3C(=O)C1Cc2ccccc2N1` (stereo not shown) [Compound 31] here?
Its IC50 is 81 nM.

And the “Acute Toxicity (MLD)” value (dd strain male mice)?
Its value is 20 mg/kg.

For `COC(=O)C1(C)NC2=C(C1=O)C13CC1CN(C(=O)/C=C/c1ccc(OC)c(OC)c1)C3=CC2=O` (stereo not shown) [Compound 29], which IC50 (HeLa S3 cells; HeLa S3, 72 h) is on record?
Its IC50 is less than 0.024 nM.

Which IC50 (HeLa S3 cells; [2]) does the source give for `COC(=O)C1(C)Nc2c(O)cc3c(c2C1=O)C(CBr)CN3C(=O)/C=C/c1ccc(NC(C)=O)cc1` (stereo not shown) [Compound 37] here?
The IC50 was 0.74 nM.

Which “Acute Toxicity (MLD)” value (dd strain male mice) does the source give for `COC(=O)C1(C)Nc2c(O)cc3c(c2C1=O)C(CBr)CN3C(=O)/C=C/c1ccc(NC(=O)OCc2ccccc2)cc1` (stereo not shown) [Compound 36] here?
Its value is 1.3 mg/kg.

With `COC(=O)C1(C)Nc2c(O)cc3c(c2C1=O)C(CBr)CN3C(=O)COc1ccccc1` (stereo not shown) [Compound 15] as the molecule, how does the IC50 (HeLa S3 cells; HeLa S3, 72 h) read?
The IC50 was 3.1 nM.

What about the “Acute Toxicity (MLD)” value (dd strain male mice) of the same molecule?
The value was 4.0 mg/kg.

Which IC50 (HeLa S3 cells; HeLa S3, 72 h) does the source give for `COC(=O)C1(C)Nc2c(O)cc3c(c2C1=O)C(CBr)CN3C(=O)/C=C/c1ccccc1` (stereo not shown) [Compound 7] here?
Its IC50 is 5.7 nM.

And the “Acute Toxicity (MLD)” value (dd strain male mice)?
Its value is 1.0 mg/kg.

For `COC(=O)C1(C)Nc2c(O)cc3c(c2C1=O)C(CBr)CN3C(=O)CNc1ccccc1` (stereo not shown) [Compound 19], which “Acute Toxicity (MLD)” value (dd strain male mice) is on record?
The value was 2.5 mg/kg.

What does the source list for `COC(=O)C1(C)Nc2c(O)cc3c(c2C1=O)C(CBr)CN3C(=O)c1cc2cc(OC)c(OCc3ccccc3)c(OC)c2[nH]1` (stereo not shown) [Compound 55]?
IC50 (HeLa S3 cells; HeLa S3, 72 h): 0.52 nM; Acute Toxicity (MLD), minimum lethal dose (dd strain male mice): 0.25 mg/kg

Which IC50 (HeLa S3 cells; HeLa S3, 72 h) does the source give for `COC(=O)C1(C)Nc2c(O)cc3c(c2C1=O)C(CBr)CN3C(=O)c1cc2cc(OC)c(OC)cc2[nH]1` (stereo not shown) [Compound 24] here?
The IC50 was 0.024 nM.

And the “Acute Toxicity (MLD)” value (dd strain male mice)?
Its value is 0.25 mg/kg.

Which IC50 (HeLa S3 cells; [2]) does the source give for `COC(=O)C1(C)NC2=C(C1=O)C13CC1CN(C(=O)/C=C/c1ccccc1)C3=CC2=O` (stereo not shown) [Compound 6] here?
The IC50 was 2.3 nM.

For `COC(=O)C1(C)Nc2c(O)cc3c(c2C1=O)C(CBr)CN3C(=O)/C=C/c1ccc(N)cc1` (stereo not shown) [Compound 48], which IC50 (HeLa S3 cells; [2]) is on record?
The IC50 was 1.2 nM.

What does the source list for `COC(=O)C1(C)Nc2c(O)cc3c(c2C1=O)C(CBr)CN3C(=O)c1cc2cc(NC(=O)c3cc4ccccc4[nH]3)ccc2[nH]1` (stereo not shown) [Compound 45]?
IC50 (HeLa S3 cells; HeLa S3, 72 h): 1.1 nM; Acute Toxicity (MLD), minimum lethal dose (dd strain male mice): 0.63 mg/kg

Which “Acute Toxicity (MLD)” value (dd strain male mice) does the source give for `COC(=O)C1(C)Nc2c(O)cc3c(c2C1=O)C(CBr)CN3C(=O)c1cc2ccccc2s1` (stereo not shown) [Compound 26] here?
The value was 2.2 mg/kg.

Which IC50 (HeLa S3 cells; [2]) does the source give for `COC(=O)C1(C)Nc2c(O)cc3c(c2C1=O)C(CBr)CN3C(=O)c1cc2cc(N)ccc2[nH]1` (stereo not shown) [Compound 33] here?
Its IC50 is 0.88 nM.

Which IC50 (HeLa S3 cells; HeLa S3, 72 h) does the source give for `COC(=O)C1(C)Nc2c(O)cc3c(c2C1=O)C(CBr)CN3C(=O)/C=C/c1ccc(N(C)C)cc1` (stereo not shown) [Compound 40] here?
The IC50 was 0.085 nM.

And the “Acute Toxicity (MLD)” value (dd strain male mice)?
The value was 0.31 mg/kg.

Which “Acute Toxicity (MLD)” value (dd strain male mice) does the source give for `COC(=O)C1(C)NC2=C(C1=O)C13CC1CN(C(=O)c1cc4cc(NC(=O)OC(C)(C)C)ccc4[nH]1)C3=CC2=O` (stereo not shown) [Compound 32] here?
The value was 0.25 mg/kg.

Which antibacterial activity (various bacteria) does the source give for `COC(=O)C1(C)NC2=C(C1=O)C13CC1CN(C(=O)c1cc4cc(OC)c(OC)c(OC)c4[nH]1)C3=CC2=O` (stereo not shown) [DC-88A] here?
The antibacterial activity was “antibacterial activity against various bacteria”.

And the “antitumor activity against lymphocytic leukemia P388” value [1]?
Its value is “antitumor activity against lymphocytic leukemia P388”.

Which IC50 (HeLa S3 cells; [2]) does the source give for `COC(=O)C1(C)NC2=C(C1=O)C13CC1CN(C(=O)c1cc4ccccc4[nH]1)C3=CC2=O` (stereo not shown) [Compound 1] here?
The IC50 was 1.1 nM.

For `COC(=O)C1(C)NC2=C(C1=O)C13CC1CN(C(=O)c1cc4ccccc4s1)C3=CC2=O` (stereo not shown) [Compound 25], which IC50 (HeLa S3 cells; [2]) is on record?
The IC50 was 7.6 nM.

For `COC(=O)C1(C)Nc2c(O)cc3c(c2C1=O)C(CBr)CN3C(=O)c1cc2cc(OC)ccc2o1` (stereo not shown) [Compound 34], which IC50 (HeLa S3 cells; HeLa S3, 72 h) is on record?
The IC50 was 0.05 nM.

And the “Acute Toxicity (MLD)” value (dd strain male mice)?
Its value is 0.063 mg/kg.

For `COC(=O)C1(C)Nc2c(O)cc3c(c2C1=O)C(CBr)CN3C(=O)c1cc2cc(OC)ccc2[nH]1` (stereo not shown) [Compound 3], which “Acute Toxicity (MLD)” value (dd strain male mice) is on record?
The value was 0.063 mg/kg.

With `COC(=O)C1(C)Nc2c(O)cc3c(c2C1=O)C(CBr)CN3C(=O)/C=C/c1cccc(OC)c1` (stereo not shown) [Compound 28] as the molecule, how does the IC50 (HeLa S3 cells; HeLa S3, 72 h) read?
Its IC50 is 2.5 nM.

And the “Acute Toxicity (MLD)” value (dd strain male mice)?
The value was 0.16 mg/kg.

Which “Acute Toxicity (MLD)” value (dd strain male mice) does the source give for `COC(=O)C1(C)Nc2c(O)cc3c(c2C1=O)C(CBr)CN3C(C)=O` (stereo not shown) [Compound 22] here?
Its value is 13 mg/kg.

With `COC(=O)C1(C)Nc2c(O)cc3c(c2C1=O)C(CI)CN3C(=O)c1cc2cc(OC)c(OC)c(OC)c2[nH]1` (stereo not shown) [Compound 5] as the molecule, how does the IC50 (HeLa S3 cells; [2]) read?
Its IC50 is 0.011 nM.

Which “Acute Toxicity (MLD)” value (dd strain male mice) does the source give for `COC(=O)C1(C)Nc2c(O)cc3c(c2C1=O)C(CBr)CN3C(=O)CCc1ccc(OC)c(OC)c1` (stereo not shown) [Compound 39] here?
The value was 1.3 mg/kg.

Which IC50 (HeLa S3 cells; [2]) does the source give for `COC(=O)C1(C)NC2=C(C1=O)C13CC1CN(C(=O)c1cc4cc(OC)c(OC)cc4[nH]1)C3=CC2=O` (stereo not shown) [Compound 23] here?
The IC50 was less than 0.024 nM.

For `COC(=O)C1(C)NC2=C(C1=O)C13CC1CN(C(=O)Nc1ccccc1)C3=CC2=O` (stereo not shown) [Compound 8], which IC50 (HeLa S3 cells; [2]) is on record?
The IC50 was 3.2 nM.

Which “Acute Toxicity (MLD)” value (dd strain male mice) does the source give for `COC(=O)C1(C)Nc2c(O)cc3c(c2C1=O)C(CBr)CN3C(=O)/C=C/c1ccc([N+](=O)[O-])cc1` (stereo not shown) [Compound 41] here?
The value was 1.3 mg/kg.

Which IC50 (HeLa S3 cells; [2]) does the source give for `COC(=O)C1(C)NC2=C(C1=O)C13CC1CN(C(=O)/C=C/c1cccc(OC)c1)C3=CC2=O` (stereo not shown) [Compound 27] here?
The IC50 was 0.6 nM.

For `COC(=O)C1(C)NC2=C(C1=O)C13CC1CN(C(=O)COc1ccccc1)C3=CC2=O` (stereo not shown) [Compound 14], which IC50 (HeLa S3 cells; [2]) is on record?
Its IC50 is 6.7 nM.

For `COC(=O)C1(C)Nc2c(O)cc3c(c2C1=O)C(CBr)CN3C(=O)/C=C/c1ccc(OC)cc1` (stereo not shown) [Compound 38], which IC50 (HeLa S3 cells; HeLa S3, 72 h) is on record?
The IC50 was 0.035 nM.

What about the “Acute Toxicity (MLD)” value (dd strain male mice) of the same molecule?
Its value is 0.063 mg/kg.

Which IC50 (HeLa S3 cells; HeLa S3, 72 h) does the source give for `COC(=O)C1(C)Nc2c(O)cc3c(c2C1=O)C(CBr)CN3C(=O)/C=C/c1ccc(OC)c(OC)c1` (stereo not shown) [Compound 30] here?
The IC50 was 0.034 nM.

And the “Acute Toxicity (MLD)” value (dd strain male mice)?
The value was 0.082 mg/kg.

Which IC50 (HeLa S3 cells; [2]) does the source give for `COC(=O)C1(C)Nc2c(O)cc3c(c2C1=O)C(CBr)CN3C(=O)Nc1ccccc1` (stereo not shown) [Compound 9] here?
The IC50 was 2.6 nM.

With `COC(=O)C1(C)Nc2c(O)cc3c(c2C1=O)C(CBr)CN3C(=O)c1cc2ccccc2[nH]1` (stereo not shown) [Compound 2] as the molecule, how does the IC50 (HeLa S3 cells; HeLa S3, 72 h) read?
The IC50 was 0.054 nM.

What about the “Acute Toxicity (MLD)” value (dd strain male mice) of the same molecule?
Its value is 0.25 mg/kg.
